{"source": "paper PMC9879440", "about": "“Heterozygous deletion of Gpr55 does not affect a hyperthermia-induced seizure, spontaneous seizures or survival in the Scn1a^+/^- mouse model of Dravet syndrome” (PLOS ONE, 2023)", "key": {"[1]": {"system": "F1.Scn1a+/- mice", "assay": "Hyperthermia-induced seizures in F1.Scn1a+/- mouse model of Dravet syndrome", "type": "in vivo", "parameters": "key to Threshold temperature of individual mice for GTCS induced by hyperthermia: core body temperature in °C at first clonic convulsion", "description": "Hyperthermia-induced seizure experiments were conducted on male and female F1.Scn1a^+/- and F1.Scn1a^+/-;Gpr55^+/- mice at P14-16 as previously described. Briefly, a RET-3 rectal temperature probe was inserted and mice acclimated for 5 min before mouse core body temperature was elevated 0.5°C every 2 min until the onset of first clonic convulsion with loss of posture or until 42.5°C was reached. For hyperthermia-induced seizure experiments with CID2921524, mice received a single i.p. injection of vehicle or CID2921524 at an injection volume of 10 mL/kg following the 5 min acclimation period.\n(§1) Normality of each dataset was assessed using the Shapiro-Wilk test. Concentrations of CID2921524 in plasma and brain at each time point were averaged and pharmacokinetic parameters were calculated by noncompartmental analysis as previously described. Seizure threshold temperatures were compared using Mantel-Cox logrank test. Spontaneous seizure data were analysed using two-way ANOVA (seizure frequency and seizure severity), Fisher’s exact test (proportion of mice seizure-free) or Mantel-Cox logrank test (survival). RT-ddPCR data were analysed using two-way ANOVA. All results p < 0.05 were considered statistically significant."}, "[2]": {"assay": "Pharmacokinetic analysis in mouse plasma and brain after a single i.p. injection", "type": "in vivo", "description": "A pharmacokinetic study was conducted for CID2921524 (MolPort; Riga, LVA) to determine the target experimental time point for the hyperthermia-induced seizure protocol. Male and female wildtype mice (P21-28) received a single intraperitoneal (i.p.) injection of 10 mg/kg CID2921524 in ethanol-Tween 80-saline (1:1:18) with an injection volume of 10 mL/kg. At selected time points, mice were anaesthetized with isoflurane and whole blood was collected via cardiac puncture. Plasma was isolated by centrifugation, whole brain was also collected and samples were stored at -80°C until assayed.\nPlasma and brain samples were prepared for analysis of CID2921524 concentrations as previously described. Samples were assayed by LC-MS/MS using a Shimadzu Nexera ultra-HPLD coupled to a Shimadzu 8030 triple quadrupole mass spectrometer (Shimadzu Corp.; Kyoto, JPN) operated in positive electrospray ionization mode with multiple reaction monitoring with 376.3 > 121.1 and 376.2 > 77.0 mass transition pairs. Quantification was achieved by comparing experimental samples to standards prepared with known amounts of drug.\nas §1"}, "[3]": {"system": "GPR55", "parameters": "method as in PubChem AID 2013", "conditions": "image-based HTS; ref PubChem AID 2013; read-out: IC50 value as GPR55 antagonist; cited from earlier work"}, "[4]": {"parameters": "method as in PMID 28973916", "conditions": "cited from earlier work"}, "[5]": {"conditions": "both sexes, brain, intraperitoneal, wildtype mice P21-28, 10 mg/kg i.p., n = 4, read-out: Brain concentration, average"}, "[6]": {"conditions": "both sexes, plasma, intraperitoneal, wildtype mice P21-28, 10 mg/kg i.p., n = 4, read-out: Plasma concentration, average"}}, "note": "“And” between values parts separate entries of the source, which are not always exact repeats. Equal entries are not always repeated. Where two headings read alike, the source gives them in different places.", "data": [{"smiles": "COc1ccc(CNCCC(c2ccccc2)c2ccc3c(c2)OCO3)cc1", "note": "(centres unmarked) [CID2921524]", "values": [{"measurement": "Threshold temperature of individual mice for GTCS induced by hyperthermia", "setting": "[1]; F1.Scn1a+/- mice P14-16, male and female, 10 mg/kg i.p. acute, one value per mouse, n = 12, core body temperature (°C), 10 mg/kg, in °C", "value": "41.2 and 40.3 and 40.2 and 40.8 and 41.5 and 40.7 and 38.9 and 39.9 and 41 and 40.6 and 39.6"}, {"measurement": "effect on a hyperthermia-induced seizure (GTCS temperature threshold)", "setting": "[1]; F1.Scn1a+/- mice, 10 mg/kg i.p. vs vehicle, Mantel-Cox logrank", "value": "no effect"}, {"measurement": "brain penetrance", "setting": "[2]; 10 mg/kg i.p.", "value": "brain penetrant"}, {"measurement": "total concentration achieved in the brain", "setting": "[2]; 10 mg/kg i.p., free-fraction unknown", "value": "~ 5 μM"}, {"measurement": "Kp", "setting": "[2]; both sexes, brain and plasma, ip, 10 mg/kg i.p., read-out: brain-plasma ratio (total exposure by AUC values)", "value": 1.4}, {"measurement": "concentration at 15 min", "setting": "[2]; [5]", "value": 1820, "unit": "ng/g"}, {"measurement": "concentration at 30 min", "setting": "[2]; [5]", "value": 1530, "unit": "ng/g"}, {"measurement": "concentration at 60 min", "setting": "[2]; [5]", "value": 1210, "unit": "ng/g"}, {"measurement": "concentration at 90 min", "setting": "[2]; [5]", "value": 1310, "unit": "ng/g"}, {"measurement": "concentration at 120 min", "setting": "[2]; [5]", "value": 1550, "unit": "ng/g"}, {"measurement": "concentration at 15 min", "setting": "[2]; [6]", "value": 1960, "unit": "ng/mL"}, {"measurement": "concentration at 30 min", "setting": "[2]; [6]", "value": 1420, "unit": "ng/mL"}, {"measurement": "concentration at 45 min", "setting": "[2]; both sexes, plasma, intraperitoneal, wildtype mice P21-28, 10 mg/kg i.p., 45 min, n = 4", "value": 1400, "unit": "ng/mL"}, {"measurement": "concentration at 60 min", "setting": "[2]; [6]", "value": 1370, "unit": "ng/mL"}, {"measurement": "concentration at 90 min", "setting": "[2]; [6]", "value": 1020, "unit": "ng/mL"}, {"measurement": "concentration at 120 min", "setting": "[2]; [6]", "value": 1090, "unit": "ng/mL"}, {"measurement": "absorption into plasma and brain", "setting": "[2]; i.p. administration", "value": "rapidly absorbed"}, {"measurement": "half-lives in plasma and brain", "setting": "[2]; i.p. administration", "value": "relatively long half-lives"}, {"measurement": "IC50", "setting": "[3]", "value": 965, "unit": "nM"}]}, {"smiles": "CCOc1ccc(N(CC)C(=O)c2nn(-c3ccc(OC)cc3)c(=O)c3c2c2ccccc2n3C)cc1", "note": "[CID16020064]", "values": [{"measurement": "brain penetrance", "setting": "[4]", "value": "not brain penetrant"}]}]}
